Test results as given in ChEMBL document CHEMBL3885861, “Open TG-GATES”.

Species: Rattus norvegicus
Experiment: Open TG-GATES - Regimen: Single
Assay type: toxicity, organism-based, Sprague-Dawley
Set-up: regimen Single, gender Male, age 6 weeks
Conditions: in vivo, po, 6 mg/kg, route gavage, dose level Middle; for APTT / Bas / Eos / Fbg / Hb / Lym / MCH / MCHC / MCV / Mono / Neu / PT / Plat / RBC / Ret / WBC: tissue Blood; for KIDNEY_L / KIDNEY_R / KIDNEY_TOTAL: tissue Kidney; for LIVER: tissue Liver; for ALP / ALT / AST / BUN / CRE / Ca / Cl / DBIL / GLC / IP / K / LDH / Na / PL / RALB / TBIL / TC / TG / TP / gamma-GTP: tissue Plasma

With `OCCN1CCN(CCCN2c3ccccc3Sc3ccc(C(F)(F)F)cc32)CC1` [FLUPHENAZINE] the TERMINAL_BW (3 h) was 196.9 g, the APTT (3 h) was 16 s and the Bas (3 h) was 0%. For the same compound, the Eos (3 h) was 0.6%, the Fbg (3 h) was 213.6 mg/dL and the Hb (3 h) was 12.8 g/dL. It also gave a Lym (3 h) of 75%, an MCH (3 h) of 21.2 pg and an MCHC (3 h) of 32.9%. For the same compound, the MCV (3 h) was 64.2 fL, the Mono (3 h) was 9.2% and the Neu (3 h) was 15.2%. The PT (3 h) was 12.5 s, the Plat (3 h) was 98.9 x10_4/uL and the RBC (3 h) was 607.8 x10_4/ul. For the same compound, the Ret (3 h) was 7.7%, the WBC (3 h) was 78.7 x10_2/uL and the KIDNEY_L (3 h) was 0.9 g. It also gave a KIDNEY_R (3 h) of 0.9 g, a KIDNEY_TOTAL (3 h) of 1.8 g and an LIVER (3 h) of 9.1 g. For the same compound, the ALP (3 h) was 915 IU/L, the ALT (3 h) was 35.8 IU/L and the AST (3 h) was 63.2 IU/L. For the same compound, the BUN (3 h) was 10 mg/dL, the CRE (3 h) was 0.5 mg/dL and the Ca (3 h) was 10.3 mg/dL. For the same compound, the Cl (3 h) was 105.4 meq/L, the DBIL (3 h) was 0.008 mg/dL and the GLC (3 h) was 191 mg/dL. It also gave an IP (3 h) of 10.4 mg/dL, a K (3 h) of 4.4 meq/L and an LDH (3 h) of 91.6 IU/L. For the same compound, the Na (3 h) was 138.2 meq/L, the PL (3 h) was 136.6 mg/dL and the RALB (3 h) was 3.6 g/dL. The TBIL (3 h) was 0.4 mg/dL, the TC (3 h) was 77.2 mg/dL and the TG (3 h) was 48 mg/dL. For the same compound, the TP (3 h) was 5.3 g/dL, the gamma-GTP (3 h) was 1.8 IU/L and the TERMINAL_BW (6 h) was 195.2 g. For the same compound, the APTT (6 h) was 16.4 s, the Bas (6 h) was 0% and the Eos (6 h) was 0.8%. For the same compound, the Fbg (6 h) was 211.6 mg/dL, the Hb (6 h) was 13.2 g/dL and the Lym (6 h) was 74.4%. It also gave an MCH (6 h) of 21.3 pg, an MCHC (6 h) of 32.8% and an MCV (6 h) of 64.9 fL. It also gave a Mono (6 h) of 9.4%, a Neu (6 h) of 15.8% and a PT (6 h) of 12.3 s. It also gave a Plat (6 h) of 113.8 x10_4/uL, an RBC (6 h) of 620.4 x10_4/ul and a Ret (6 h) of 8.6%. For the same compound, the WBC (6 h) was 89.6 x10_2/uL, the KIDNEY_L (6 h) was 0.9 g and the KIDNEY_R (6 h) was 0.9 g. It also gave a KIDNEY_TOTAL (6 h) of 1.8 g, an LIVER (6 h) of 8.8 g and an ALP (6 h) of 722.4 IU/L. The ALT (6 h) was 30 IU/L, the AST (6 h) was 56.2 IU/L and the BUN (6 h) was 10.4 mg/dL. For the same compound, the CRE (6 h) was 0.5 mg/dL, the Ca (6 h) was 10.2 mg/dL and the Cl (6 h) was 105.6 meq/L. It also gave a DBIL (6 h) of 0.014 mg/dL, a GLC (6 h) of 196 mg/dL and an IP (6 h) of 10.2 mg/dL. The K (6 h) was 4.7 meq/L, the LDH (6 h) was 90.8 IU/L and the Na (6 h) was 136 meq/L. It also gave a PL (6 h) of 144.4 mg/dL, an RALB (6 h) of 3.6 g/dL and a TBIL (6 h) of 0.4 mg/dL. It also gave a TC (6 h) of 84.6 mg/dL, a TG (6 h) of 26.8 mg/dL and a TP (6 h) of 5.3 g/dL. The gamma-GTP (6 h) was 1.4 IU/L, the TERMINAL_BW (9 h) was 194 g and the APTT (9 h) was 16.5 s. The Bas (9 h) was 0%, the Eos (9 h) was 0.6% and the Fbg (9 h) was 227 mg/dL. The Hb (9 h) was 13.2 g/dL, the Lym (9 h) was 79.2% and the MCH (9 h) was 22.1 pg. For the same compound, the MCHC (9 h) was 33.3%, the MCV (9 h) was 66.3 fL and the Mono (9 h) was 5.8%. The Neu (9 h) was 14.8%, the PT (9 h) was 12.5 s and the Plat (9 h) was 112.2 x10_4/uL. For the same compound, the RBC (9 h) was 598.2 x10_4/ul, the Ret (9 h) was 7.8% and the WBC (9 h) was 74.5 x10_2/uL. The KIDNEY_L (9 h) was 0.9 g, the KIDNEY_R (9 h) was 1 g and the KIDNEY_TOTAL (9 h) was 1.9 g. The LIVER (9 h) was 7.9 g, the ALP (9 h) was 730.2 IU/L and the ALT (9 h) was 30.4 IU/L. It also gave an AST (9 h) of 54.2 IU/L, a BUN (9 h) of 9.2 mg/dL and a CRE (9 h) of 0.5 mg/dL. For the same compound, the Ca (9 h) was 10.1 mg/dL, the Cl (9 h) was 106.2 meq/L and the DBIL (9 h) was 0.038 mg/dL. For the same compound, the GLC (9 h) was 189 mg/dL, the IP (9 h) was 10.5 mg/dL and the K (9 h) was 4.2 meq/L. For the same compound, the LDH (9 h) was 83.8 IU/L, the Na (9 h) was 138.4 meq/L and the PL (9 h) was 133.2 mg/dL. It also gave an RALB (9 h) of 3.7 g/dL, a TBIL (9 h) of 0.4 mg/dL and a TC (9 h) of 80.6 mg/dL. The TG (9 h) was 21.4 mg/dL, the TP (9 h) was 5.5 g/dL and the gamma-GTP (9 h) was 1.8 IU/L. For the same compound, the TERMINAL_BW (24 h) was 201.5 g, the APTT (24 h) was 16.7 s and the Bas (24 h) was 0%. For the same compound, the Eos (24 h) was 1.2%, the Fbg (24 h) was 208 mg/dL and the Hb (24 h) was 13.7 g/dL. It also gave a Lym (24 h) of 81.4%, an MCH (24 h) of 21.6 pg and an MCHC (24 h) of 33.2%. It also gave an MCV (24 h) of 64.9 fL, a Mono (24 h) of 9% and a Neu (24 h) of 8.6%. For the same compound, the PT (24 h) was 11.9 s, the Plat (24 h) was 112.8 x10_4/uL and the RBC (24 h) was 636 x10_4/ul. The Ret (24 h) was 7.3%, the WBC (24 h) was 85.5 x10_2/uL and the KIDNEY_L (24 h) was 0.9 g. The KIDNEY_R (24 h) was 0.9 g, the KIDNEY_TOTAL (24 h) was 1.8 g and the LIVER (24 h) was 9.6 g. For the same compound, the ALP (24 h) was 748.4 IU/L, the ALT (24 h) was 28.2 IU/L and the AST (24 h) was 56.6 IU/L. For the same compound, the BUN (24 h) was 23.8 mg/dL, the CRE (24 h) was 0.5 mg/dL and the Ca (24 h) was 11 mg/dL. The Cl (24 h) was 103.6 meq/L, the DBIL (24 h) was 0.03 mg/dL and the GLC (24 h) was 176.8 mg/dL. It also gave an IP (24 h) of 8 mg/dL, a K (24 h) of 5 meq/L and an LDH (24 h) of 90 IU/L. The Na (24 h) was 137.2 meq/L, the PL (24 h) was 154.6 mg/dL and the RALB (24 h) was 4.2 g/dL. It also gave a TBIL (24 h) of 0.3 mg/dL, a TC (24 h) of 84.4 mg/dL and a TG (24 h) of 94.4 mg/dL. It also gave a TP (24 h) of 6.1 g/dL and a gamma-GTP (24 h) of 1.2 IU/L.
